Results: US7521454B2 (Dainippon Sumitomo Pharma Co., Ltd., priority 2001, dated 2009)
Values after ≈ are worked out from the molar mass of the structure shown.

Legend:
[1] = system: rat model of eosinophil leukocytic infiltration; assay: Rat model of eosinophil leukocytic infiltration (OVA, bronchoalveolar lavage); format: in vivo; conditions: 2.5 hours before induction, lavage 24 hours after
Description: A rat was immunized intraperitoneally with 1 ml of a solution containing 1 mg of ovalbumin (OVA) and 100 mg of Al(OH)3 on day 0 and day 7. On day 14, a 1% OVA solution was sprayed for 15 minutes using a ultrasonic nebulizer to induce reactions. A test compound was administered intratracheally 2.5 hours before the induction. Bronchoalveolar lavage was performed 24 hours after the induction, and eosinocytes in the wash was stained with Hinkelman to count the number of stained cells. Sensi.−/Challe.+, CMC-Na, and Fluticasone were used as controls. FIG. 1 and the following table show the results.

[2] = Solubility in citric acid/disodium phosphate buffers; conditions: thermodynamic from solid
Description: 5.53% citric acid (monohydrate) and 1.75% disodium phosphate (anhydrous) were mixed together to prepare buffers (pH 2.5, 5.5, 7.4). A compound was added thereto, the mixture was stirred in a vortex mixer and subjected to ultrasonication for 30 minutes. Thereafter, the resultant was stirred in a vortex mixer again and then centrifuged at 15,000 rpm for 20 minutes. The levels of the compounds in the supernatants were then quantified by HPLC.

Q: What does the source list for `CCCCNc1nc(N)c2nc(O)n(Cc3ccc(C)nc3)c2n1` [Example 27, 2-Butylamino-8-hydroxy-9-(6-methyl-3-pyridylmethyl)adenine]?
A: eosinocytes in bronchoalveolar lavage, Average ([1]; 0.001 mg/kg intratracheal): 383.85 ×10^4 cells; eosinocytes in bronchoalveolar lavage, Average ([1]; 0.01 mg/kg intratracheal): 186.77 ×10^4 cells; eosinocytes in bronchoalveolar lavage, Average ([1]; 0.1 mg/kg intratracheal): 46.84 ×10^4 cells; solubility at 30 min ([2]; pH 2.5, aqueous buffer): 610 µg/mL (≈ 1860 µM); solubility at 30 min ([2]; pH 5.5, aqueous buffer): 5 µg/mL (≈ 15.3 µM); solubility at 30 min ([2]; pH 7.4, aqueous buffer): 2 µg/mL (≈ 6.11 µM)
